Test system: EV-A71
Experiment: microbe, parasite or virus in culture
Assay type: cell-based, enterovirus A71
Details: Enterovirus A, EVA71, HeLa R19, read-out: EC50 EV-A71

SMILES	EC50
O=C(c1ccco1)N(Cc1ccc(S(F)(F)(F)(F)F)cc1)c1ccccc1 [Compound 19f, N-(4-(Pentafluorosulfaneyl)benzyl)-N-phenylfuran-2-carboxamide]	4.37 ± 0.5 µM

Same assay, conditions: Enterovirus A, EVA71, HeLa R19, read-out: EC50 Exp1

SMILES	EC50
O=C(c1ccco1)N(Cc1ccc(S(F)(F)(F)(F)F)cc1)c1ccccc1 [Compound 19f, N-(4-(Pentafluorosulfaneyl)benzyl)-N-phenylfuran-2-carboxamide]	3.87 µM

Same assay, conditions: Enterovirus A, EVA71, HeLa R19, read-out: EC50 Exp2

SMILES	EC50
O=C(c1ccco1)N(Cc1ccc(S(F)(F)(F)(F)F)cc1)c1ccccc1 [Compound 19f, N-(4-(Pentafluorosulfaneyl)benzyl)-N-phenylfuran-2-carboxamide]	4.87 µM

Test system: CV-B3
Experiment: microbe, parasite or virus in culture
Assay type: cell-based, coxsackievirus B3
Details: not given

SMILES	effect of the substitution on antiviral activity against CV-B3 (in words)
O=C(c1ccco1)N(Cc1ccc(S(F)(F)(F)(F)F)cc1)c1ccccc1 [Compound 19f, N-(4-(Pentafluorosulfaneyl)benzyl)-N-phenylfuran-2-carboxamide]	only marginally affected antiviral activity

Same assay, conditions: Enterovirus B, CVB3, HeLa R19, read-out: CV-B3 EC50 Average

SMILES	EC50
O=C(c1ccco1)N(Cc1ccc(S(F)(F)(F)(F)F)cc1)c1ccccc1 [Compound 19f, N-(4-(Pentafluorosulfaneyl)benzyl)-N-phenylfuran-2-carboxamide]	3.1 µM

Same assay, conditions: Enterovirus B, CVB3, HeLa R19, read-out: CV-B3 Exp 1 EC50

SMILES	EC50
O=C(c1ccco1)N(Cc1ccc(S(F)(F)(F)(F)F)cc1)c1ccccc1 [Compound 19f, N-(4-(Pentafluorosulfaneyl)benzyl)-N-phenylfuran-2-carboxamide]	3.52 µM

Same assay, conditions: Enterovirus B, CVB3, HeLa R19, read-out: CV-B3 Exp2 EC50

SMILES	EC50
O=C(c1ccco1)N(Cc1ccc(S(F)(F)(F)(F)F)cc1)c1ccccc1 [Compound 19f, N-(4-(Pentafluorosulfaneyl)benzyl)-N-phenylfuran-2-carboxamide]	2.68 µM

Same assay, conditions: Enterovirus B, CVB3, HeLa R19, read-out: EC50 HelaR19 Average

SMILES	EC50
O=C(c1ccco1)N(Cc1ccc(S(F)(F)(F)(F)F)cc1)c1ccccc1 [Compound 19f, N-(4-(Pentafluorosulfaneyl)benzyl)-N-phenylfuran-2-carboxamide]	3.28 µM

Same assay, conditions: Enterovirus B, CVB3, HeLa R19, read-out: Exp 1 EC50 HelaR19

SMILES	EC50
O=C(c1ccco1)N(Cc1ccc(S(F)(F)(F)(F)F)cc1)c1ccccc1 [Compound 19f, N-(4-(Pentafluorosulfaneyl)benzyl)-N-phenylfuran-2-carboxamide]	3.45 µM

Same assay, conditions: Enterovirus B, CVB3, HeLa R19, read-out: Exp 2 EC50 HelaR19

SMILES	EC50
O=C(c1ccco1)N(Cc1ccc(S(F)(F)(F)(F)F)cc1)c1ccccc1 [Compound 19f, N-(4-(Pentafluorosulfaneyl)benzyl)-N-phenylfuran-2-carboxamide]	3.11 µM

Test system: PV-1
Experiment: microbe, parasite or virus in culture
Assay type: cell-based, poliovirus 1
Details: Enterovirus C, HeLa R19, read-out: EC50 PV-1

SMILES	EC50
O=C(c1ccco1)N(Cc1ccc(S(F)(F)(F)(F)F)cc1)c1ccccc1 [Compound 19f, N-(4-(Pentafluorosulfaneyl)benzyl)-N-phenylfuran-2-carboxamide]	> 30 µM

Test system: CV-A24
Experiment: microbe, parasite or virus in culture
Assay type: cell-based, coxsackievirus A24
Details: Enterovirus C, CVA24, HeLa R19, read-out: EC50 CV-A24

SMILES	EC50
O=C(c1ccco1)N(Cc1ccc(S(F)(F)(F)(F)F)cc1)c1ccccc1 [Compound 19f, N-(4-(Pentafluorosulfaneyl)benzyl)-N-phenylfuran-2-carboxamide]	> 30 µM

Test system: EV-D68
Experiment: microbe, parasite or virus in culture
Assay type: cell-based, enterovirus D68
Details: Enterovirus D, EVD68, HeLa R19, read-out: EC50 Exp1

SMILES	EC50
O=C(c1ccco1)N(Cc1ccc(S(F)(F)(F)(F)F)cc1)c1ccccc1 [Compound 19f, N-(4-(Pentafluorosulfaneyl)benzyl)-N-phenylfuran-2-carboxamide]	13.6 µM

Same assay, conditions: Enterovirus D, EVD68, HeLa R19, read-out: EC50 Exp2

SMILES	EC50
O=C(c1ccco1)N(Cc1ccc(S(F)(F)(F)(F)F)cc1)c1ccccc1 [Compound 19f, N-(4-(Pentafluorosulfaneyl)benzyl)-N-phenylfuran-2-carboxamide]	15.3 µM

Test system: HRV-A2
Experiment: microbe, parasite or virus in culture
Assay type: cell-based, human rhinovirus
Details: Human rhinovirus sp., HRVA2, HeLa R19, read-out: EC50 HRV-A2

SMILES	EC50
O=C(c1ccco1)N(Cc1ccc(S(F)(F)(F)(F)F)cc1)c1ccccc1 [Compound 19f, N-(4-(Pentafluorosulfaneyl)benzyl)-N-phenylfuran-2-carboxamide]	> 30 µM

Test system: HRV-B14
Experiment: microbe, parasite or virus in culture
Assay type: cell-based, human rhinovirus
Details: Human rhinovirus sp., HRVB14, HeLa R19, read-out: EC50 Exp1

SMILES	EC50
O=C(c1ccco1)N(Cc1ccc(S(F)(F)(F)(F)F)cc1)c1ccccc1 [Compound 19f, N-(4-(Pentafluorosulfaneyl)benzyl)-N-phenylfuran-2-carboxamide]	4.68 µM

Same assay, conditions: Human rhinovirus sp., HRVB14, HeLa R19, read-out: EC50 Exp2

SMILES	EC50
O=C(c1ccco1)N(Cc1ccc(S(F)(F)(F)(F)F)cc1)c1ccccc1 [Compound 19f, N-(4-(Pentafluorosulfaneyl)benzyl)-N-phenylfuran-2-carboxamide]	5.76 µM

Same assay, conditions: Human rhinovirus sp., HRVB14, HeLa R19, read-out: EC50 HRV-B14

SMILES	EC50
O=C(c1ccco1)N(Cc1ccc(S(F)(F)(F)(F)F)cc1)c1ccccc1 [Compound 19f, N-(4-(Pentafluorosulfaneyl)benzyl)-N-phenylfuran-2-carboxamide]	5.22 ± 0.54 µM

Test system: CV-B3
Experiment: microbe, parasite or virus in culture
Assay type: cell-based, coxsackievirus B3
Details: Enterovirus B, CVB3, HAP1, read-out: EC50 Hap1 Average

SMILES	EC50
O=C(c1ccco1)N(Cc1ccc(S(F)(F)(F)(F)F)cc1)c1ccccc1 [Compound 19f, N-(4-(Pentafluorosulfaneyl)benzyl)-N-phenylfuran-2-carboxamide]	2100 nM

Same assay, conditions: Enterovirus B, CVB3, HAP1, read-out: Exp 1 EC50 Hap1

SMILES	EC50
O=C(c1ccco1)N(Cc1ccc(S(F)(F)(F)(F)F)cc1)c1ccccc1 [Compound 19f, N-(4-(Pentafluorosulfaneyl)benzyl)-N-phenylfuran-2-carboxamide]	2300 nM

Same assay, conditions: Enterovirus B, CVB3, HAP1, read-out: Exp 2 EC50 Hap1

SMILES	EC50
O=C(c1ccco1)N(Cc1ccc(S(F)(F)(F)(F)F)cc1)c1ccccc1 [Compound 19f, N-(4-(Pentafluorosulfaneyl)benzyl)-N-phenylfuran-2-carboxamide]	1900 nM

Test system: CV-B3
Experiment: microbe, parasite or virus in culture
Assay type: cell-based, coxsackievirus B3
Details: Enterovirus B, CVB3, BGM, read-out: EC50 BGM Average

SMILES	EC50
O=C(c1ccco1)N(Cc1ccc(S(F)(F)(F)(F)F)cc1)c1ccccc1 [Compound 19f, N-(4-(Pentafluorosulfaneyl)benzyl)-N-phenylfuran-2-carboxamide]	2600 nM

Same assay, conditions: Enterovirus B, CVB3, BGM, read-out: Exp 1 EC50 BGM

SMILES	EC50
O=C(c1ccco1)N(Cc1ccc(S(F)(F)(F)(F)F)cc1)c1ccccc1 [Compound 19f, N-(4-(Pentafluorosulfaneyl)benzyl)-N-phenylfuran-2-carboxamide]	2220 nM

Same assay, conditions: Enterovirus B, CVB3, BGM, read-out: Exp 2 EC50 BGM

SMILES	EC50
O=C(c1ccco1)N(Cc1ccc(S(F)(F)(F)(F)F)cc1)c1ccccc1 [Compound 19f, N-(4-(Pentafluorosulfaneyl)benzyl)-N-phenylfuran-2-carboxamide]	2980 nM

Test system: HeLa R19 cells
Experiment: not given
Details: human

SMILES	CC50
O=C(c1ccco1)N(Cc1ccc(S(F)(F)(F)(F)F)cc1)c1ccccc1 [Compound 19f, N-(4-(Pentafluorosulfaneyl)benzyl)-N-phenylfuran-2-carboxamide]	32.9 ± 2 µM

Same assay, conditions: human, monkey

SMILES	cytotoxicity (in words)
O=C(c1ccco1)N(Cc1ccc(S(F)(F)(F)(F)F)cc1)c1ccccc1 [Compound 19f, N-(4-(Pentafluorosulfaneyl)benzyl)-N-phenylfuran-2-carboxamide]	cytotoxicity in a similar range as the parental compound 1

Test system: not listed separately
Experiment: in vitro
Details: human, CC50 Average

SMILES	CC50
O=C(c1ccco1)N(Cc1ccc(S(F)(F)(F)(F)F)cc1)c1ccccc1 [Compound 19f, N-(4-(Pentafluorosulfaneyl)benzyl)-N-phenylfuran-2-carboxamide]	> 30 µM

Same assay, conditions: human, CC50 HelaR19 Average

SMILES	CC50
O=C(c1ccco1)N(Cc1ccc(S(F)(F)(F)(F)F)cc1)c1ccccc1 [Compound 19f, N-(4-(Pentafluorosulfaneyl)benzyl)-N-phenylfuran-2-carboxamide]	32 µM

Same assay, conditions: human, Exp 1 CC50

SMILES	CC50
O=C(c1ccco1)N(Cc1ccc(S(F)(F)(F)(F)F)cc1)c1ccccc1 [Compound 19f, N-(4-(Pentafluorosulfaneyl)benzyl)-N-phenylfuran-2-carboxamide]	> 30 µM

Same assay, conditions: human, Exp 1 CC50 HelaR19

SMILES	CC50
O=C(c1ccco1)N(Cc1ccc(S(F)(F)(F)(F)F)cc1)c1ccccc1 [Compound 19f, N-(4-(Pentafluorosulfaneyl)benzyl)-N-phenylfuran-2-carboxamide]	30 µM

Same assay, conditions: human, Exp2 CC50

SMILES	CC50
O=C(c1ccco1)N(Cc1ccc(S(F)(F)(F)(F)F)cc1)c1ccccc1 [Compound 19f, N-(4-(Pentafluorosulfaneyl)benzyl)-N-phenylfuran-2-carboxamide]	> 30 µM

Same assay, conditions: human, Exp 2 CC50 HelaR19

SMILES	CC50
O=C(c1ccco1)N(Cc1ccc(S(F)(F)(F)(F)F)cc1)c1ccccc1 [Compound 19f, N-(4-(Pentafluorosulfaneyl)benzyl)-N-phenylfuran-2-carboxamide]	34 µM

Test system: not listed separately
Experiment: in vitro
Details: human, CC50 Hap1 Average

SMILES	CC50
O=C(c1ccco1)N(Cc1ccc(S(F)(F)(F)(F)F)cc1)c1ccccc1 [Compound 19f, N-(4-(Pentafluorosulfaneyl)benzyl)-N-phenylfuran-2-carboxamide]	62.5 µM

Same assay, conditions: human, Exp 1 CC50 Hap1

SMILES	CC50
O=C(c1ccco1)N(Cc1ccc(S(F)(F)(F)(F)F)cc1)c1ccccc1 [Compound 19f, N-(4-(Pentafluorosulfaneyl)benzyl)-N-phenylfuran-2-carboxamide]	61 µM

Same assay, conditions: human, Exp 2 CC50 Hap1

SMILES	CC50
O=C(c1ccco1)N(Cc1ccc(S(F)(F)(F)(F)F)cc1)c1ccccc1 [Compound 19f, N-(4-(Pentafluorosulfaneyl)benzyl)-N-phenylfuran-2-carboxamide]	64.1 µM

Test system: not listed separately
Experiment: in vitro
Details: monkey, CC50

SMILES	CC50
O=C(c1ccco1)N(Cc1ccc(S(F)(F)(F)(F)F)cc1)c1ccccc1 [Compound 19f, N-(4-(Pentafluorosulfaneyl)benzyl)-N-phenylfuran-2-carboxamide]	31.9 ± 1.41 µM

Same assay, conditions: monkey, CC50 BGM Average

SMILES	CC50
O=C(c1ccco1)N(Cc1ccc(S(F)(F)(F)(F)F)cc1)c1ccccc1 [Compound 19f, N-(4-(Pentafluorosulfaneyl)benzyl)-N-phenylfuran-2-carboxamide]	31.9 µM

Same assay, conditions: monkey, Exp 1 CC50 BGM

SMILES	CC50
O=C(c1ccco1)N(Cc1ccc(S(F)(F)(F)(F)F)cc1)c1ccccc1 [Compound 19f, N-(4-(Pentafluorosulfaneyl)benzyl)-N-phenylfuran-2-carboxamide]	30.5 µM

Same assay, conditions: monkey, Exp 2 CC50 BGM

SMILES	CC50
O=C(c1ccco1)N(Cc1ccc(S(F)(F)(F)(F)F)cc1)c1ccccc1 [Compound 19f, N-(4-(Pentafluorosulfaneyl)benzyl)-N-phenylfuran-2-carboxamide]	33.3 µM
